How the values were obtained:
[1] = target: T1, GARFT domain of the human enzyme (Homo sapiens, UniProt P22102); assay: GARFT inhibition constants, Method I (Cleland; spectrophotometric assay of Young et al.); type: biochemical; conditions: Method I (Examples 2-5 and 10); 22° C, 20 mM Hepes pH 7.5, 20 μM GAR, variable 10-formyl-5,8-dideazafolate
T1 construct: The GARFT domain of the human enzyme was used
T1 sequence (P22102 810-1010 limits assumed): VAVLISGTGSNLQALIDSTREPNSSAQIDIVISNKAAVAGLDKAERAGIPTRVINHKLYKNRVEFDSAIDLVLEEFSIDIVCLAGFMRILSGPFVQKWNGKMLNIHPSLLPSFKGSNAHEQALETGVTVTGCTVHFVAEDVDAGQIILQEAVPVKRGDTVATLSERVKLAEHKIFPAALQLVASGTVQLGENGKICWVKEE
Protocol: Determination of Inhibition Constants for GARFT
The GARFT domain of the human enzyme was used. […] The assay mix contained 20 mM Hepes pH 7.5, 20 μM GAR, and variable amounts of 10-formyl-5,8-dideazafolate and inhibitor. For each inhibitor five concentrations were used ranging from 0 to approximately 3Ki. The data were plotted as the […] versus the reciprocal of the 10-formyl-5,8-dideaza-folate concentration. The inhibition constants were measured from a replot of the slopes of these lines obtained for each concentration of inhibitor versus the inhibitor concentration.

L1210 murine leukemia = assay: Cellular growth inhibition, L1210 (MTT-tetrazolium reduction); type: cell-based; conditions: Mus musculus, L1210, 72 h; 3 days continuous exposure; read-out: Cell Line, IC50 L1210
Protocol: (§1) Cellular growth in the presence of the compounds according to the present invention was assessed using two cell lines: the L1210 murine leukemia (ATCC CCL 219) and CCRF-CEM, a human lymphoblastic leukemia line of T-cell origin (ATCC CCL 119). Both lines were maintained in RPMI 1640 medium containing 5% heat-inactivated fetal bovine serum without antibiotics.
(§2) Growth was measured over 3 days (L1210) or 5 days (CCRF-CEM) of continuous exposure to varying concentrations of each test compound added 4 hours after initial cell plating by the MITT-tetrazolium reduction assay of Mosmann T. J. (Immunol. meth. 65, 55-63 (1983)), modified according to Alley et al. (Cancer Res. 48, 589-601 (1988)). Water insoluble derivatives were dissolved in DMSO and diluted to a final concentration of 0.5% solvent in cell cultures.

L1210-C192 = assay: Cellular growth inhibition, L1210-C192; type: cell-based; conditions: read-out: Cell Line, IC50 L1210-C192
[2] = tested on: CCRF-CEM, a human lymphoblastic leukemia line of T-cell origin; assay: Cellular growth inhibition, CCRF-CEM (MTT-tetrazolium reduction); type: cell-based; conditions: 120 h, 5 days continuous exposure
Protocol: as §1, §2

[3] = target: T2, catalytic domain of the human GARFT (Homo sapiens, UniProt P22102); assay: GARFT inhibition constants, Method II (modified Young et al. assay); type: biochemical; conditions: Method II (Examples 6, 7, 8 and 9); 20° C, 50 mM Tris-Cl pH 7.5, 20 μM GAR, 10 or 20 μM FDDF
T2 construct: Reaction mixtures contained the catalytic domain of the human GARFT
T2 sequence (P22102 810-1010 limits assumed): T1 sequence (P22102 810-1010 limits assumed)
Protocol: Reaction mixtures contained the catalytic domain of the human GARFT, inhibitor, 20 μM glycinamide ribonucleotide (GAR), 10 or 20 μM N^10-formyl-5,8-dideazafolate (FDDF), and 50 mM Tris-Cl at pH 7.5.
GARFT constants (Ki) were determined from the dependence of the steady-state catalytic rate upon inhibitor and substrate concentration. […] The michaelis constant Km, was determined independently by the dependence of the catalytic rate upon FDDF concentration. Data for both the Km and Ki determinations were fitted by non-linear methods to the Michaelis equation or the Michaelis equation for competitive inhibition as appropriate.

[4] = target: T3, partially purified AICARFT from cultured CEM cells (Homo sapiens, UniProt P31939); assay: AICARFT inhibition constants (modified Black et al. assay); type: biochemical; conditions: 37° C, 50 mM Tris-Cl pH 7.4, 50 μM racemic FTHF
T3 construct: partially purified AICARFT from cultured CEM cells; endogenous in cells; host or cells: CEM cells (partially purified enzyme preparation)
T3 sequence (P31939 whole entry): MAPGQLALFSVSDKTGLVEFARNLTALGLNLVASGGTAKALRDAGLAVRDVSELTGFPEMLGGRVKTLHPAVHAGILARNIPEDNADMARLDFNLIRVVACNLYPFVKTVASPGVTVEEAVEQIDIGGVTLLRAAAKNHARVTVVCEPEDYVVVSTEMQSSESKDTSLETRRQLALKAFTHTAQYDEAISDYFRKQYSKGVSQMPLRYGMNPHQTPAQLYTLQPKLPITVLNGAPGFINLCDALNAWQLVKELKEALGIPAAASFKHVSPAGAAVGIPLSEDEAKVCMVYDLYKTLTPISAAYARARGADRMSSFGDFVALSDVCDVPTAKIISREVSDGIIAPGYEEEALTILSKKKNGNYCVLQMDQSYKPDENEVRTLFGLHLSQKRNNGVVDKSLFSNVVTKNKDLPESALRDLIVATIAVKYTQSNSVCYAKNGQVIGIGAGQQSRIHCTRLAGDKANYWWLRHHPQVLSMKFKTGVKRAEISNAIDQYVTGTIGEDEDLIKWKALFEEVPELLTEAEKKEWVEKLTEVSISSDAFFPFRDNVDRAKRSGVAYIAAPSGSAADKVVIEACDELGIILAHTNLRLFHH
Protocol: Determination of Inhibition Constants for AICARFT
The assay method of Black et al. (Anal Biochem 90, 397-401 (1978)) was modified and used as described below. Buffers were degassed under vacuum prior to the preparation of substrate solutions and degassed buffer was used in the reaction mixtures. Reaction mixtures contained partially purified AICARFT from cultured CEM cells, inhibitor, 100 μM […] (5-aminoimidazole-4-carboxamide-ribonucleotide), 50 μM of a racemic mixture of N10-formyl-tetrahydrofolate (FTHF), 25 mM KCl, 50 mM 2-mercaptoethanol and 50 mM Tris-Cl pH 7.4. The reaction was initiated with the addition of the enzyme solution to a final concentration of 0.1 mg/mL and the reaction followed by monitoring the increase in absorbance at 298 nm at 37° C. (ε298=28 mM cm^−1).
AICARFT inhibition constants (Ki) were determined from the dependence of the steady-state catalytic rate upon inhibitor and substrate concentration. The type of inhibition observed and the determination of Ki was performed as described above for inhibitors of GARFT with the appropriate substrates and the AICARFT assay. Treatment of experimental data was essentially the same.

Structure (SMILES) | Ki [1] | IC50 (L1210 murine leukemia) | IC50 (L1210-C192) | IC50 [2] | Ki [3] | Ki [4] | melting point
Cc1cc(CCCSc2c(N)nc(N)[nH]c2=O)sc1C(=O)N[C@@H](CCC(=O)O)C(=O)O [Example 6] |  | 120 nM | > 25000 nM | 68 nM |  |  | 
Cc1cc(C(=O)N[C@@H](CCC(=O)O)C(=O)O)sc1CCCSc1c(N)nc(N)[nH]c1=O [Example 7] |  | 89 nM | 28000 nM | 99 nM |  |  | 
Nc1nc(N)c(SCCc2ccc(C(=O)N[C@@H](CCC(=O)O)C(=O)O)s2)c(=O)[nH]1 [Example 9, N-(5-[2-([2,6-Diamino-4(3H)-oxopyrimidin-5-yl]thio)ethyl]thieno-2-yl)-L-glutamic Acid] |  | 250 nM | 22000 nM | 620 nM | 2000 nM | 35000 nM | 228 to 230 °C (dec.)
Nc1nc(N)c(SCCc2ccc(C(=O)N[C@@H](CCC(=O)O)C(=O)O)cc2)c(=O)[nH]1 [Example 10] | 30000 nM | 1500 nM | 12000 nM | 1200 nM |  | 60000 nM | 177 to 181 °C

Continued by falling IC50 (L1210 murine leukemia), values first:

Ki [1] | IC50 (L1210 murine leukemia) | IC50 (L1210-C192) | IC50 [2] | Ki [3] | Ki [4] | melting point | Structure (SMILES)
110 nM | 110 nM | 10000 nM | 130 nM |  |  |  | Nc1nc(N)c(SCCSc2ccc(C(=O)N[C@@H](CCC(=O)O)C(=O)O)cc2)c(=O)[nH]1 [Example 4, N-[(4-[2-([2,6-diamino-4(3H)-oxopyrimidin-5-yl]thio)ethyl]thio)benzoyl]-S-glutamic Acid]
88 nM | 90 nM | 4200 nM | 80 nM |  |  |  | Nc1nc(N)c(SCCNc2ccc(C(=O)N[C@@H](CCC(=O)O)C(=O)O)cc2)c(=O)[nH]1 [Example 5, N-[4-(N-[2-([2,6-diamino-4(3H)-oxopyrimidin-5-yl]thio)ethyl]amino)benzoyl]-S-glutamic Acid]
 | 79 nM | 5000 nM | 65 nM |  |  |  | Nc1nc(N)c(SCCCc2ccc(C(=O)N[C@@H](CCC(=O)O)C(=O)O)cc2)c(=O)[nH]1 [Example 2, N-(4-(3-[2,6-diamino-4(3H)-oxopyrimidin-5-yl)thio]propyl)benzoyl-(S)-glutamic Acid]
35 nM | 40 nM | 10500 nM | 49 nM |  |  |  | Nc1nc(N)c(SCCCc2ccc(C(=O)N[C@@H](CCC(=O)O)C(=O)O)s2)c(=O)[nH]1 [Example 3, N-[2-(5-[3-([2,6-diamino-4(3H)-oxopyrimidin-5-yl]thio)propyl]-thienoyl)]-(S)-glutamic Acid]
 | 10 nM | 9000 nM | 8 nM |  |  |  | Nc1nc(N)c(SCC2CCc3cc(C(=O)N[C@@H](CCC(=O)O)C(=O)O)sc3C2)c(=O)[nH]1 (stereo partly drawn) [Example 8, N-(6-[([2,6-diamino-4(3H)oxopyrimidin-5-yl]-thio)methyl]-4,5,6,7-tetrahydrobenzothieno-2-yl)-S-glutamic Acid]

Source: patent publication US20020173515A1, “Antiproliferative substituted 5-thiapyrimidinone and 5-selenopyrimidinone compounds” (priority 1992, published 2002)
